From paper PMC3793977, “High-Throughput Screening (HTS) and Hit Validation to Identify Small Molecule Inhibitors with Activity against NS3/4A proteases from Multiple Hepatitis C Virus Genotypes” (PLoS ONE, 2013)
Several values for one entry are separate records, joined by “and”; a condition that tells them apart may be missing. Equal values may be shown once.

How the values were obtained:
[1] = biological target: T1, full-length NS3/4A genotype 1b mutant A156V (Hepatitis C virus genotype 1b, UniProt Q9WMX2, A1182V); test: Inhibition assay with drug-resistant mutant A156V; type: biochemical; details: genotype 1b full-length mutant
T1 construct: wild-type HCV NS3 (HCV polyprotein residues 1027–1657); His-tag (N); made in house
Experimental: (§1) The full-length genes of wild-type HCV NS3 (HCV polyprotein residues 1027–1657) with a his-tag at the N-terminus and NS4A (residues 1658–1711) with no tag were cloned, co-expressed, and purified as described. Eight NS3 drug resistant mutants (V36M, V36A, T54A, R155K, R155T, A156T, A156S, and 156V) were generated by mutagenesis using full-length, wild-type NS3-containing recombinant plasmid (pETDuet-1/FL NS3/4A) as a template. The over-expression and purification of all mutants were performed by the same method as the wild-type with minor modifications.
(§2) The inhibitory activity of the final hit compounds from HTS were tested against three other HCV genotypes (1a, 2a, and 4d), along with a control (genotype 1b) and five NS3 drug-resistant mutants. Eight full-length NS3 mutants (V36M, R155K, A156T, A156S, 156V, V36A, T54A, and R155T) were generated by mutagenesis and purified, and the three HCV NS3/4A protease genotypes were purchased from Anaspec. Unfortunately the enzyme activities of the three mutants V36A, T54A, and R155T were much less than that of the rest of the mutants and were insufficient for testing, therefore mutant studies were done with the five active mutants. Continuous kinetic assays were performed against all hit compounds in the same way as the wild-type NS3/4A. […]

[2] = biological target: T2, full-length NS3/4A genotype 1b mutant A156S (Hepatitis C virus genotype 1b, UniProt Q9WMX2, A1182S); test: Inhibition assay with drug-resistant mutant A156S; type: biochemical; details: in words
T2 construct: wild-type HCV NS3 (HCV polyprotein residues 1027–1657); His-tag (N); made in house
Experimental: as §1, §2

[3] = biological target: T3, NS3/4A protease genotype 1a (Hepatitis C virus genotype 1a, UniProt P27958); test: Inhibition assay with NS3/4A from genotype 1a; type: biochemical; details: IC50 NS3/4A genotype 1a
T3 construct: against the NS3/4A protease domains from three additional HCV genotypes (1a, 2a, and 4d); purchased Anaspec
Experimental: (§3) The inhibitory activity of the final hit compounds from HTS were tested against three other HCV genotypes (1a, 2a, and 4d), along with a control (genotype 1b) and five NS3 drug-resistant mutants. Eight full-length NS3 mutants (V36M, R155K, A156T, A156S, 156V, V36A, T54A, and R155T) were generated by mutagenesis and purified, and the three HCV NS3/4A protease genotypes were purchased from Anaspec. Unfortunately the enzyme activities of the three mutants V36A, T54A, and R155T were much less than that of the rest of the mutants and were insufficient for testing, therefore mutant studies were done with the five active mutants. Continuous kinetic assays were performed against all hit compounds in the same way as the wild-type NS3/4A. As a control, full-length NS3/4A (genotype 1b) was tested under the same conditions for direct comparison for each plate.

[4] = biological target: T4, full-length NS3/4A genotype 1b mutant R155K (Hepatitis C virus genotype 1b, UniProt Q9WMX2, R1181K); test: Inhibition assay with drug-resistant mutant R155K; type: biochemical; details: in words
T4 construct: wild-type HCV NS3 (HCV polyprotein residues 1027–1657); His-tag (N); made in house
Experimental: as §1, §2

[5] = biological target: T5, Chymotrypsin (Homo sapiens, UniProt P17538); test: Inhibitor selectivity assay, chymotrypsin (fluorometric); type: biochemical; details: human chymotrypsin
T5 construct: purchased Sigma
T5 sequence (P17538 19-263): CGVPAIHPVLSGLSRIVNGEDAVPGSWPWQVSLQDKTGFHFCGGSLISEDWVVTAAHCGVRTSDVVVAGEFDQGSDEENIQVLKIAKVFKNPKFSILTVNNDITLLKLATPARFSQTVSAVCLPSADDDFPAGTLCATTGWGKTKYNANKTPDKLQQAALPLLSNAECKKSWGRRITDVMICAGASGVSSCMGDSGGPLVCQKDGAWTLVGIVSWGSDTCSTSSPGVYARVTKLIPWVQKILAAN
Experimental: (§4) To test for selectivity, two human serine proteases, Trypsin and Chymotrypsin (Sigma), were tested with the top two hit compounds from HTS using a fluorometric assay. The fluorogenic substrates used in this study were N-benzoyl-L-Arg-7-amido-4-methylcoumarin (Sigma) and N-succinyl-Ala-Ala-Phe-7-amido-4- methylcoumarin (Sigma) for trypsin and chymotrypsin, respectively. All assays were performed in 384-well black plates (Corning) in a total volume of 24 µL of PBS (pH 7.4) buffer containing 0.01% Triton, 0.1 mg/mL BSA, and 2 mM GSH in triplicate. A series of compound concentrations (0 to 200 µM final concentration at 2-fold serial dilution) in 100% DMSO was prepared in a 384-well plate. 20 µL of trypsin (0.01 mg/mL) and chymotrypsin (0.0001 mg/mL) solutions were distributed into wells, and 0.5 µL of varying concentration of compounds were added and incubated for 10 minutes. The enzyme reaction was initiated by adding 5 µL of the substrate (50 µM final concentration), and fluorescence intensity was continuously monitored at excitation/emission wavelengths of 350 nm/460 nm for 10 minutes.

[6] = biological target: T6, full-length NS3/4A (Hepatitis C virus genotype 1b, UniProt Q9WMX2); test: Type (mechanism) of enzyme inhibition, kinetic analysis; type: biochemical
T6 construct: wild-type HCV NS3 (HCV polyprotein residues 1027–1657); His-tag (N); made in house
Experimental: Full-length NS3/4A activity was monitored in the same way as the primary screening with varying concentration of both inhibitor compounds and substrate (0–8 µM). The concentration of compounds varied from 0 to 20 µM at 1.5-fold dilution factor.

[7] = biological target: T7, full-length NS3/4A protease (genotype 1b) (Hepatitis C virus genotype 1b, UniProt Q9WMX2); test: biochemical; details: purified full-length NS3/4A, genotype 1b wild-type; read-out: IC50 Full-length NS3/4A
T7 construct: wild-type HCV NS3 (HCV polyprotein residues 1027–1657); His-tag (N); made in house
Experimental: All assays were done in duplicate in black 384-well plates (Matrix Technologies). […] 200 nL of 10 mM compound (50 µM final concentrations) were then added and incubated for 5 minutes. Enzyme reactions were initiated with 10 µL of substrate Ac-DE-Dap(QXL520)-EE-Abu-ψ-[COO]AS-C(5-FAMsp)-NH2 (Anaspec) (1 µM final concentration), incubated for 6 minutes, and quenched by 10 µL of 10% SDS as a stop solution. Fluorescence intensity was monitored with a POLARstar OPTIMA microplate reader (BMG LABTECH). Each plate contained a total of 32 positive and 32 negative controls.
A series of compound concentrations (0 to 200 µM final concentration at 2-fold serial dilution) in 100% DMSO were prepared in a 384-well plate. 20 µL of enzyme solution was distributed to wells, and 0.5 µL of varying concentration of compounds were added and incubated for 5 minutes. The enzyme reaction was initiated by adding 5 µL of the substrate, and its activity was continuously monitored for 6 minutes. The IC50 values were calculated by fitting with the Hill equation (1), with OriginPro 8.5 (OriginLab, Inc.) where y is percent inhibition, x is inhibitor concentration, n is the slope of the concentration–response curve (Hill slope), and Vmax is maximal inhibition from two to four independent assays. [drawing 1] (1)

[8] = biological target: T8, NS3/4A protease genotype 2a (Hepatitis C virus genotype 2a, UniProt Q99IB8); test: Inhibition assay with NS3/4A from genotype 2a; type: biochemical; details: IC50 Purified NS3/4A Sub-genotype 2a, genotype 2a
T8 construct: against the NS3/4A protease domains from three additional HCV genotypes (1a, 2a, and 4d); purchased Anaspec
Experimental: as §3

[9] = biological target: T9, Trypsin (Homo sapiens, UniProt P07477); test: Inhibitor selectivity assay, trypsin (fluorometric); type: biochemical
T9 construct: purchased Sigma
Experimental: as §4

[10] = biological target: T6, full-length NS3/4A; test: SPR binding assay (dissociation equilibrium constant KD); details: double referenced with blank and unrelated reference protein
Experimental: The full-length NS3/4A enzyme was prepared in a storage buffer (50 mM HEPES, pH 7.6, 500 mM NaCl, 1 mM DTT, 0.2% Triton X-100, and 20% glycerol) and immobilized on a CM5 sensor chip using standard amine-coupling at 25°C with running buffer HBS-P (10 mM HEPES, 150 mM NaCl, 0.05% surfactant P-20, pH 7.4) using a Biacore T100 instrument. Flow channels 1 and 3 were activated by 1-ethyl-3-(3-dimethylaminopropyl) carbodiimide hydrocholoride (EDC)/N-hydroxy succinimide (NHS) mixture, and the activated surface was blocked by ethanolamine (pH 8.5) as controls. The NS3/4A enzyme was diluted in 10 mM sodium acetate (pH 5.0), and immobilized to flow channel 4 after sensor surface activation with EDC/NHS with a 7 min injection followed by ethanolamine blocking on unoccupied surface area. NS3/4A immobilization level was ∼8,500 response units (RU). An unrelated reference protein (92 kDa) was also immobilized to flow channel 2 as another control to be compared with NS3/4A (74.6 kDa). Fifteen initial hit compounds were prepared as 10 mM DMSO stock solutions. Compound solutions with a series of increasing concentrations (0–200 µM at 1.5-fold dilution) were applied to all four channels at a 10 µL/min flow rate at 25°C. Sensorgrams were analyzed using Biaevaluation software 2.0.3, and response unit difference (ΔRU) values at each concentration were measured during the equilibration phase. Data were either single referenced with a blank (enthanolamine) or double referenced with both blank and reference protein RU values. SigmaPlot 11.0 was used to fit the data to a single rectangular hyperbolic curve to determine KD values. The hyperbola function, y = ymax·x/(KD+x), was used to plot response units and corresponding concentration, where y is the response, ymax is the maximum response, and x is the compound concentration.

[11] = biological target: T10, full-length NS3/4A genotype 1b mutant A156T (Hepatitis C virus genotype 1b, UniProt Q9WMX2, A1182T); test: Inhibition assay with drug-resistant mutant A156T; type: biochemical; details: in words
T10 construct: wild-type HCV NS3 (HCV polyprotein residues 1027–1657); His-tag (N); made in house
Experimental: as §1, §2

[12] = biological target: T11, full-length NS3/4A genotype 1b mutant V36M (Hepatitis C virus genotype 1b, UniProt Q9WMX2, V1062M); test: Inhibition assay with drug-resistant mutant V36M; type: biochemical; details: genotype 1b full-length mutant
T11 construct: wild-type HCV NS3 (HCV polyprotein residues 1027–1657); His-tag (N); made in house
Experimental: as §1, §2

[13] = biological target: NS3/4A protease genotype 4d (Hepatitis C virus subtype 4d, UniProt Q1ZZ56); test: Inhibition assay with NS3/4A from genotype 4d; type: biochemical
Experimental: as §3

## CC(C)C(=O)N1CCc2ccc(NC(=O)COc3ccc(F)cc3)cc2C1 [Compound 13]
[1]
  IC50: < 20 µM
[2]
  activity against mutant A156S compared with wild-type: decreased in activity
[3]
  IC50: 1.7 µM and < 20 µM
[4]
  activity against mutant R155K compared with wild-type: completely lost activity
[5]
  IC50: 110 ± 32 µM
[6]; competitive model, with respect to substrate
  Ki: 19.1 µM
[6]; with respect to the substrate, best fit model
  mechanism of inhibition: competitive inhibitors
[7]
  IC50: 20.2 ± 2.2 µM
[8]
  IC50: < 20 µM
[9]; 100 µM compound, read-out: Trypsin % Inh at 100 µM
  inhibition at 100 µM: 5.1%
[9]; human trypsin
  IC50: > 100 µM
[10]
  SPR binding to NS3/4A, double referenced: specific binding
[11]
  activity against mutant A156T compared with wild-type: decreased in activity
[12]
  IC50: < 20 µM
[13]
  IC50: < 20 µM
